Target: Bile acid receptor NR1H4 (Homo sapiens) (UniProt Q96RI1)
Assay: Agonist activity at FXR in human HepG2 cells

Sequence of Bile acid receptor NR1H4 (Homo sapiens) (Q96RI1 whole entry, looked up): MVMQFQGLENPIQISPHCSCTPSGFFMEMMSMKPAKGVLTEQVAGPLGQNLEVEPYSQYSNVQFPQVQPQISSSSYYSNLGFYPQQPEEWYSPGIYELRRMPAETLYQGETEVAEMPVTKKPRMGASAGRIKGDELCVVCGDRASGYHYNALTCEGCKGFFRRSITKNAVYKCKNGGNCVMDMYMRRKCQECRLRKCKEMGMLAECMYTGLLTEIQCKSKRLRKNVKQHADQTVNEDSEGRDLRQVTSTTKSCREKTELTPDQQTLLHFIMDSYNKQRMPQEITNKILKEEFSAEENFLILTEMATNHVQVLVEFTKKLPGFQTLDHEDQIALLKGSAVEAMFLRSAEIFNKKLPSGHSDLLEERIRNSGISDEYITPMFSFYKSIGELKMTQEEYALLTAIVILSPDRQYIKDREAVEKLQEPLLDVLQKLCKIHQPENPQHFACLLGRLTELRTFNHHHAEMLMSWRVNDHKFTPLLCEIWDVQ

EC50	SMILES
0.35 nM	O=C(O)c1cc(F)c2nc(N3C[C@@H]4C[C@H]3C[C@H]4OCc3c(-c4ccccc4OC(F)(F)F)noc3C3CC3)sc2c1
0.75 nM	O=C(O)c1ccc([C@@H]2C[C@H]2c2ccc(OCc3c(-c4c(Cl)cccc4Cl)noc3C3CC3)cc2Cl)cc1

From BindingDB's records for PubMed 34889100 (University of Health Sciences and Pharmacy, 2021)
